Experimental data taken from publication PMC2787699 (Biochemistry, 2009).

Target: T1, TalrD/GalrD (Salmonella enterica, UniProt Q8ZL58)
T1 sequence (Q8ZL58 1-398): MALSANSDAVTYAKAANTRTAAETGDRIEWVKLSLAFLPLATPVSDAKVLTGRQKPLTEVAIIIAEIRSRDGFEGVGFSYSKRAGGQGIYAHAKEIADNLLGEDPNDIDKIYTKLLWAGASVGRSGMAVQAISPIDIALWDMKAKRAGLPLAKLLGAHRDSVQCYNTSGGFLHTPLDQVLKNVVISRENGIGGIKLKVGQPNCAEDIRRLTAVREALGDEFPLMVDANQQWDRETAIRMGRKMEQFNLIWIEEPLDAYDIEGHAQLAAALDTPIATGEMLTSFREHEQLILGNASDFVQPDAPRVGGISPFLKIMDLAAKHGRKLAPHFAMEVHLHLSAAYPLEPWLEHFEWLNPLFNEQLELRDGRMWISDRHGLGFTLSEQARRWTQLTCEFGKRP
Assay: polarimetry at […] nm, product formation
Format: biochemical
Settings: 10 mM galactarate, 50 mM Hepes pH 8.0, 5 mM MgCl2, room temperature

For `O=C(O)[C@@H](O)[C@H](O)[C@H](O)[C@@H](O)C(=O)O` [galactarate], the “polarimetry at 589 nm, product formation” value was “TalrD/GalrD produces a product with a positive rotation”.
